Results from ChEMBL document CHEMBL5120857, “Rational design, synthesis and biological evaluation of dual PARP-1/2 and TNKS1/2 inhibitors for cancer therapy” (Eur J Med Chem, 2022).
Active and inactive are the calls of the source. The calls are words filed in the database; no cut-off is given here.

Experiments:
HCT-116 [1] = experiment: Antiproliferative activity against human HCT-116 cells assessed as inhibition of cell growth incubated for 7 days by MTT assay; format: functional, cell-based; details: HCT-116, 168 h
MDA-MB-468 = experiment: Antiproliferative activity against human MDA-MB-468 cells assessed as inhibition of cell growth incubated for 7 days by MTT assay; format: functional, cell-based; details: MDA-MB-468, 168 h
HCT-116 [2] = experiment: Inhibition of Wnt/beta-Catenin signaling in human HCT-116 cells assessed as decrease in total beta-catenin levels at 10 uM by Western blot analysis; format: cell-based
HCT-116 [3] = experiment: Inhibition of Wnt/beta-Catenin signaling in human HCT-116 cells assessed as decrease in cyclin D1 levels at 10 uM by Western blot analysis; format: cell-based
HCT-116 [4] = experiment: Inhibition of homologous recombinant repair in human HCT-116 cells assessed as reduction in RAD51 foci formation at 1 uM incubated for 72 hrs by DAPI staining based immunofluorescence analysis; format: functional, cell-based
HCT-116 [5] = experiment: Induction of apoptosis in human HCT-116 cells assessed as early apoptotic cells at 5 uM incubated for 3 days by annexinV-FITC/propidium iodide staining based flow cytometry (reference value: 7.67 %); format: functional; details: time 3 day
HCT-116 [6] = experiment: Induction of apoptosis in human HCT-116 cells assessed as late apoptotic cells at 5 uM incubated for 3 days by annexinV-FITC/propidium iodide staining based flow cytometry (reference value: 8.71 %); format: functional; details: time 3 day
HCT-116 [7] = experiment: Induction of apoptosis in human HCT-116 cells assessed as necrotic cells at 5 uM incubated for 3 days by annexinV-FITC/propidium iodide staining based flow cytometry (reference value: 3.65 %); format: functional; details: time 3 day
HCT-116 [8] = experiment: Induction of apoptosis in human HCT-116 cells assessed as viable cells at 1 uM incubated for 3 days by annexinV-FITC/propidium iodide staining based flow cytometry (reference value: 60.0 %); format: functional; details: HCT-116, 72 h, time 3 day, read-out: Activity
HCT-116 [9] = experiment: Induction of apoptosis in human HCT-116 cells assessed as necrotic cells at 1 uM incubated for 3 days by annexinV-FITC/propidium iodide staining based flow cytometry (reference value: 3.65 %); format: functional; details: time 3 day
HCT-116 [10] = experiment: Induction of cell cycle arrest in human HCT-116 cells assessed as G0/G1 phase cells at 1 uM incubated for 3 days by propidium iodide staining based flow cytometry (reference value: 68.35 %); format: functional; details: time 3 day
[11] = target: T1, Protein mono-ADP-ribosyltransferase PARP12 (Homo sapiens, UniProt Q9H0J9); experiment: Inhibition of PARP-12 (unknown origin)
T1 sequence (Q9H0J9 whole entry): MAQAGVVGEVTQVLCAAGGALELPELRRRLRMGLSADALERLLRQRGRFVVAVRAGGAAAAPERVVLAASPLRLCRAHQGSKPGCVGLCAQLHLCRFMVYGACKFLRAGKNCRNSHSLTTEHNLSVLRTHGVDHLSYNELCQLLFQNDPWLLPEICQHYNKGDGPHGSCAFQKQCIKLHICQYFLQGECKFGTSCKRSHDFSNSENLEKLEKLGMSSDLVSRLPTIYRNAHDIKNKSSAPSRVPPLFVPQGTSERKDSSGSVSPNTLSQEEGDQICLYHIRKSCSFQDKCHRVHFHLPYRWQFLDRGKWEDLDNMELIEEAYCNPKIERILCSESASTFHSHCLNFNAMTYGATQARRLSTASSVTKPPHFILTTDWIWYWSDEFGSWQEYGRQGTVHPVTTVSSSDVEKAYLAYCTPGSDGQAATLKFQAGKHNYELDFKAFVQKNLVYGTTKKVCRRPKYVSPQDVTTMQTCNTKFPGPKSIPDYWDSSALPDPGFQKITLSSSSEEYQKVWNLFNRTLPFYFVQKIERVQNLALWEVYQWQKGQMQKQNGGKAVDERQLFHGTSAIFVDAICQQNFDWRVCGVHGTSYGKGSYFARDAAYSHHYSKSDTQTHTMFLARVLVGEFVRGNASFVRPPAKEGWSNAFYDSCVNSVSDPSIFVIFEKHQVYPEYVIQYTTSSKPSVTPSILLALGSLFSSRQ

[12] = Toxicity in BALB/c nude mouse xenografted with human HCT116 cells at 25 to 100 mg/kg, ip administered once daily for 28 days; format: organism-based, HCT-116; details: in vivo, 672 h, dose 25-100 mg/kg, time 28 day
HCT-116 [13] = experiment: Antitumor activity against human HCT-116 cells xenografted in BALB/c nude mouse assessed as tumor growth inhibition at 100 mg/kg, ip administered once daily for 28 days; format: functional; details: HCT-116, 672 h, time 28 day, read-out: TGI
[14] = target: Poly [ADP-ribose] polymerase 1 (Homo sapiens, UniProt P09874); details: dose 10.0 nM, time 45.0 min
Poly [ADP-ribose] polymerase 1, sequence (P09874 whole entry): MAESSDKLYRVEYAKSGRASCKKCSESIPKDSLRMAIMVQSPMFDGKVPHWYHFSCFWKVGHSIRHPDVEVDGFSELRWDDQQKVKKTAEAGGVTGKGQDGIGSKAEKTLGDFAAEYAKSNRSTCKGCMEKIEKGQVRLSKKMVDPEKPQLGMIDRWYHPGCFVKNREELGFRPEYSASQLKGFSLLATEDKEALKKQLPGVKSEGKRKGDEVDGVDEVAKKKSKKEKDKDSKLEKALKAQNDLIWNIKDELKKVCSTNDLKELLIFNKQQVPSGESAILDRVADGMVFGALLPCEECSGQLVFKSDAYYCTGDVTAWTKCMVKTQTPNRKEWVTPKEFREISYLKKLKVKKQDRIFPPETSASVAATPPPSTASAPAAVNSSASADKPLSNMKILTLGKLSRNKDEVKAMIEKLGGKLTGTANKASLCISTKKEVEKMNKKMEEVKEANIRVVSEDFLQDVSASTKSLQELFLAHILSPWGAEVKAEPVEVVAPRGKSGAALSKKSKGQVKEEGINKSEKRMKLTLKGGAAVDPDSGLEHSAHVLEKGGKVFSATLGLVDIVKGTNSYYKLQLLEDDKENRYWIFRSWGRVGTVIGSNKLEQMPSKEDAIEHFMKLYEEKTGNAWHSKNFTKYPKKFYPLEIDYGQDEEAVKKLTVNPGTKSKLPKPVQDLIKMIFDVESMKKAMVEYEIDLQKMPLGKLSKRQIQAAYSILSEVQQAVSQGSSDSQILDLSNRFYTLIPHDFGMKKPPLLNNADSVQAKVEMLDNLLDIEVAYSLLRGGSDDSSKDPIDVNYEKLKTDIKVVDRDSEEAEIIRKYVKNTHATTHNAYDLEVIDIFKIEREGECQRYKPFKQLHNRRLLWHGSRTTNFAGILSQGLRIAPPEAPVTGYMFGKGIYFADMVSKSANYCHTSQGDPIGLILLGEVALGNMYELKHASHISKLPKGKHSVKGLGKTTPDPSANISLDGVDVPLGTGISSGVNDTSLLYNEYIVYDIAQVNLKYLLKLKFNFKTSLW

For `COc1ccc(NC(=O)c2ccc(NC(=O)N3CCN(C(=O)c4cc(Cc5n[nH]c(=O)c6ccccc56)ccc4F)CC3)cc2)cc1`, the IC50 (HCT-116 [1]) was 750 nM, the IC50 (MDA-MB-468) was 90 nM and the inhibition (HCT-116 [2]) was “Active”. The inhibition (HCT-116 [3]) was “Active”, the inhibition (HCT-116 [4]) was “Active” and the Activity (HCT-116 [5]) was 6.61%. It also gave an Activity (HCT-116 [6]) of 39.5%, an Activity (HCT-116 [7]) of 8.56% and a viability at 1 µM (HCT-116 [8]) of 71.3%. It also gave an Activity (HCT-116 [9]) of 4.57%, an Activity (HCT-116 [10]) of 59.2% and an IC50 [11] of 371 nM. The Activity [12] was “Non-Toxic”, the inhibition in vivo at 100 mg/kg (HCT-116 [13]) was 51.7% and the inhibition [14] was 97%.
